Measured values as given in publication PMC10819888, “Benzimidazole-Based Derivatives as Apoptotic Antiproliferative Agents: Design, Synthesis, Docking, and Mechanistic Studies” (Molecules, 2024).
Where two headings read alike, the source gives them in different places.

Experiments:
M14 = assay: NCI-60 five-dose assay; format: cell-based, human; settings: M14 (Melanoma), 48 h; for GI50 / CC50: Homo sapiens; for GI50: read-out: GI50 Conc. per Cell Line; for CC50: read-out: LC50 (the source's name)
EKVX = assay: NCI-60 five-dose assay; format: cell-based, human; settings: EKVX (Non-Small Cell Lung Cancer), 48 h; for GI50 / CC50: Homo sapiens; for GI50: read-out: GI50 Conc. per Cell Line; for CC50: read-out: LC50 (the source's name)
RXF 393 = assay: NCI-60 five-dose assay; format: cell-based, human; settings: RXF 393 (Renal Cancer), 48 h; for GI50 / CC50: Homo sapiens; for GI50: read-out: GI50 Conc. per Cell Line; for CC50: read-out: LC50 (the source's name)
SW-620 = assay: NCI-60 five-dose assay; format: cell-based, human; settings: SW-620 (Colon Cancer), 48 h; for GI50: read-out: GI50 Conc. per Cell Line
EGFR = EGFR (Homo sapiens, UniProt P00533); assay: EGFR inhibitory assay
[1] = test system: full panel of 60 human tumor cell lines; assay: NCI-60 five-dose assay, full panel; format: cell-based
OVCAR-8 = assay: NCI-60 five-dose assay; format: cell-based, human; settings: OVCAR-8 (Ovarian Cancer), 48 h; for GI50 / CC50: Homo sapiens; for GI50: read-out: GI50 Conc. per Cell Line; for CC50: read-out: LC50 (the source's name)
DU-145 = assay: NCI-60 five-dose assay; format: cell-based, human; settings: DU-145 (Prostate Cancer), 48 h; for GI50 / CC50: Homo sapiens; for GI50: read-out: GI50 Conc. per Cell Line; for CC50: read-out: LC50 (the source's name)
MDA-MB-468 = assay: NCI-60 five-dose assay; format: cell-based, human; settings: MDA-MB-468 (Breast Cancer), 48 h; for GI50: read-out: GI50 Conc. per Cell Line
IGROV1 = assay: NCI-60 five-dose assay; format: cell-based, human; settings: IGROV1 (Ovarian Cancer), 48 h; for GI50 / CC50: Homo sapiens, IGROV-1; for GI50: read-out: GI50 Conc. per Cell Line; for CC50: read-out: LC50 (the source's name)
CAKI-1 = assay: NCI-60 five-dose assay; format: cell-based, human; settings: CAKI-1 (Renal Cancer), 48 h; for GI50 / CC50: Homo sapiens; for GI50: read-out: GI50 Conc. per Cell Line; for CC50: read-out: LC50 (the source's name)
SR = assay: NCI-60 five-dose assay; format: cell-based, human; settings: SR (Leukemia), 48 h; for GI50 / CC50: Homo sapiens; for GI50: read-out: GI50 Conc. per Cell Line; for CC50: read-out: LC50 (the source's name)
HS 578T = assay: NCI-60 five-dose assay; format: cell-based, human; settings: HS 578T (Breast Cancer), 48 h; for GI50 / CC50: Homo sapiens; for GI50: read-out: GI50 Conc. per Cell Line; for CC50: read-out: LC50 (the source's name)
786-0 = assay: NCI-60 five-dose assay; format: cell-based, human; settings: 786-0 (Renal Cancer), 48 h; for GI50 / CC50: Homo sapiens; for GI50: read-out: GI50 Conc. per Cell Line; for CC50: read-out: LC50 (the source's name)
SNB-75 = assay: NCI-60 five-dose assay; format: cell-based, human; settings: SNB-75 (CNS Cancer), 48 h; for GI50 / CC50: Homo sapiens; for GI50: read-out: GI50 Conc. per Cell Line; for CC50: read-out: LC50 (the source's name)
U251 = assay: NCI-60 five-dose assay; format: cell-based, human; settings: U251 (CNS Cancer), 48 h; for GI50 / CC50: Homo sapiens, U-251; for GI50: read-out: GI50 Conc. per Cell Line; for CC50: read-out: LC50 (the source's name)
SK-MEL-2 = assay: NCI-60 five-dose assay; format: cell-based, human; settings: SK-MEL-2 (Melanoma), 48 h; for GI50: read-out: GI50 Conc. per Cell Line
OVCAR-3 = assay: NCI-60 five-dose assay; format: cell-based, human; settings: OVCAR-3 (Ovarian Cancer), 48 h; for GI50 / CC50: Homo sapiens; for GI50: read-out: GI50 Conc. per Cell Line; for CC50: read-out: LC50 (the source's name)
MOLT-4 = assay: NCI-60 five-dose assay; format: cell-based, human; settings: MOLT-4 (Leukemia), 48 h; for GI50 / CC50: Homo sapiens; for GI50: read-out: GI50 Conc. per Cell Line; for CC50: read-out: LC50 (the source's name)
[2] = average sensitivity of all cell lines, read-out: MID a (GI50)
[3] = five-dose assay, range over cell lines, read-out: GI50 range over the examined cell lines

Chain of EGFR (P00533 669-1210): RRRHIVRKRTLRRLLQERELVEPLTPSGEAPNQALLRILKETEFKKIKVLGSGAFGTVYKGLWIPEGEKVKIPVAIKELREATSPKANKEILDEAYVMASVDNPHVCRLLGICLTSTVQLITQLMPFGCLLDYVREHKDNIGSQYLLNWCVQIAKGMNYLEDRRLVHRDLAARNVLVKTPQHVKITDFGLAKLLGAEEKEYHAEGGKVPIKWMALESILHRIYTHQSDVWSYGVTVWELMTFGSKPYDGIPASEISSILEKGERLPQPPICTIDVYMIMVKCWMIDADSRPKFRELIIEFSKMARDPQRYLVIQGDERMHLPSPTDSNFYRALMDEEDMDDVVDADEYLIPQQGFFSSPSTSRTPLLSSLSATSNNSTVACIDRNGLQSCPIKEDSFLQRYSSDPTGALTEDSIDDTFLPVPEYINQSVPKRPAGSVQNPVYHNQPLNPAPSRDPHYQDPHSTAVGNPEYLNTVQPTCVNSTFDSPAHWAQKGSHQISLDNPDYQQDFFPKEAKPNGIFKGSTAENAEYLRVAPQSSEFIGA

O=C(NN=Cc1ccc(Cl)cc1)c1ccc2[nH]c(-c3ccc(Cl)cc3)nc2c1 [Compound 4e, N′-(4-Chlorobenzylidene)-2-(4-chlorophenyl)-1H-benzimidazole-5-carbohydrazide]
GI50 (M14): 1.65 µM
CC50 (M14): 8.96 µM
TGI (M14): 3.84 µM
TGI (EKVX): 3.68 µM
GI50 (EKVX): 1.82 µM
CC50 (EKVX): 7.43 µM
GI50 (RXF 393): 1.61 µM
CC50 (RXF 393): 6.64 µM
TGI (RXF 393): 3.27 µM
LC50 (SW-620; Homo sapiens): 7.43 µM
GI50 (SW-620; Homo sapiens): 1.83 µM
TGI (SW-620): 3.69 µM
IC50 (EGFR): 0.09 ± 0.01 µM
GI50 [1, 2]: 1.79 µM
LC50 ([1]; five-dose assay, range over cell lines): 5.73 to 77.9 µM
GI50 [1, 3]: 0.97 to 4.93 µM
GI50 (OVCAR-8): 2.11 µM
CC50 (OVCAR-8): 16.5 µM
TGI (OVCAR-8): 4.74 µM
TGI (DU-145): 3.44 µM
GI50 (DU-145): 1.76 µM
CC50 (DU-145): 6.7 µM
LC50 (concentration killing 50% of cells) (MDA-MB-468; Homo sapiens): 6.36 µM
GI50 (MDA-MB-468; Homo sapiens): 1.64 µM
TGI (MDA-MB-468): 3.23 µM
GI50 (IGROV1): 1.5 µM
CC50 (IGROV1): 5.92 µM
TGI (IGROV1): 2.98 µM
TGI (CAKI-1): 3.29 µM
GI50 (CAKI-1): 1.7 µM
CC50 (CAKI-1): 6.37 µM
GI50 (SR): 1.01 µM
CC50 (SR): 37 µM
TGI (SR): 3.95 µM
TGI (HS 578T): 5.27 µM
GI50 (HS 578T): 2.28 µM
CC50 (HS 578T): 63.2 µM
TGI (786-0): 3.48 µM
GI50 (786-0): 1.79 µM
CC50 (786-0): 6.76 µM
GI50 (SNB-75): 1.59 µM
CC50 (SNB-75): 8.22 µM
TGI (SNB-75): 3.62 µM
GI50 (U251): 2.1 µM
CC50 (U251): 8.35 µM
TGI (U251): 4.18 µM
LC50 (SK-MEL-2; Homo sapiens): 11.4 µM
GI50 (SK-MEL-2; Homo sapiens): 2.09 µM
TGI (SK-MEL-2): 4.64 µM
GI50 (OVCAR-3): 1.84 µM
CC50 (OVCAR-3): 6.28 µM
TGI (OVCAR-3): 3.39 µM
GI50 (MOLT-4): 1.55 µM
CC50 (MOLT-4): 28.2 µM
TGI (MOLT-4): 4.81 µM

O=C(NN=Cc1ccc([N+](=O)[O-])cc1)c1ccc2[nH]c(-c3ccc(Cl)cc3)nc2c1 [Compound 4c, N′-(4-Nitrobenzylidene)-2-(4-chlorophenyl)-1H-benzimidazole-5-carbohydrazide]
GI50 (M14): 2.73 µM
CC50 (M14): 67.1 µM
TGI (M14): 9.13 µM
TGI (EKVX): 21.20 µM
GI50 (EKVX): 3.19 µM
CC50 (EKVX): > 100 µM
GI50 (RXF 393): 2.03 µM
CC50 (RXF 393): 34 µM
TGI (RXF 393): 7.07 µM
GI50 (SW-620; Homo sapiens): 3.44 µM
TGI (SW-620): 10.80 µM
IC50 (EGFR): 0.11 ± 0.01 µM
GI50 [1, 2]: 3.28 µM
GI50 [1, 3]: 0.42 to 8.99 µM
GI50 (OVCAR-8): 2.89 µM
CC50 (OVCAR-8): > 100 µM
TGI (OVCAR-8): 13.70 µM
TGI (DU-145): 21.40 µM
GI50 (DU-145): 3.99 µM
CC50 (DU-145): > 100 µM
GI50 (MDA-MB-468; Homo sapiens): 1.97 µM
TGI (MDA-MB-468): 4.79 µM
GI50 (IGROV1): 3.04 µM
CC50 (IGROV1): 52.4 µM
TGI (IGROV1): 11.40 µM
TGI (CAKI-1): 16.10 µM
GI50 (CAKI-1): 3.49 µM
CC50 (CAKI-1): 85.4 µM
GI50 (SR): 0.566 µM
CC50 (SR): > 100 µM
TGI (SR): 4.87 µM
TGI (HS 578T): 24.40 µM
GI50 (HS 578T): 3.58 µM
CC50 (HS 578T): > 100 µM
TGI (786-0): 15.70 µM
GI50 (786-0): 3.92 µM
CC50 (786-0): 58.2 µM
GI50 (SNB-75): 2.78 µM
CC50 (SNB-75): > 100 µM
TGI (SNB-75): 18.00 µM
GI50 (U251): 2.92 µM
CC50 (U251): 48 µM
TGI (U251): 10.80 µM
GI50 (SK-MEL-2; Homo sapiens): 5.1 µM
TGI (SK-MEL-2): 21.90 µM
GI50 (OVCAR-3): 3.25 µM
CC50 (OVCAR-3): 40.9 µM
TGI (OVCAR-3): 8.23 µM
GI50 (MOLT-4): 0.421 µM
CC50 (MOLT-4): > 100 µM
TGI (MOLT-4): 3.85 µM
